Measurements reported in publication PMC9065794 (RSC Advances, 2019).

Legend:
[1] = target: T1, electric eel acetylcholinesterase (EeAChE) (Electrophorus electricus, UniProt O42275); assay: Anticholinesterase activity assay; type: biochemical
[2] = target: T2, equine serum butyrylcholinesterase (EqBuChE) (Equus caballus, UniProt P81908); assay: Anticholinesterase activity assay; type: biochemical, horse
[3] = target: T1, electric eel acetylcholinesterase (EeAChE); assay: Enzymatic kinetic study; type: biochemical
[4] = target: T2, equine serum butyrylcholinesterase (EqBuChE); assay: Enzymatic kinetic study; type: biochemical, horse

T2 sequence (P81908 whole entry): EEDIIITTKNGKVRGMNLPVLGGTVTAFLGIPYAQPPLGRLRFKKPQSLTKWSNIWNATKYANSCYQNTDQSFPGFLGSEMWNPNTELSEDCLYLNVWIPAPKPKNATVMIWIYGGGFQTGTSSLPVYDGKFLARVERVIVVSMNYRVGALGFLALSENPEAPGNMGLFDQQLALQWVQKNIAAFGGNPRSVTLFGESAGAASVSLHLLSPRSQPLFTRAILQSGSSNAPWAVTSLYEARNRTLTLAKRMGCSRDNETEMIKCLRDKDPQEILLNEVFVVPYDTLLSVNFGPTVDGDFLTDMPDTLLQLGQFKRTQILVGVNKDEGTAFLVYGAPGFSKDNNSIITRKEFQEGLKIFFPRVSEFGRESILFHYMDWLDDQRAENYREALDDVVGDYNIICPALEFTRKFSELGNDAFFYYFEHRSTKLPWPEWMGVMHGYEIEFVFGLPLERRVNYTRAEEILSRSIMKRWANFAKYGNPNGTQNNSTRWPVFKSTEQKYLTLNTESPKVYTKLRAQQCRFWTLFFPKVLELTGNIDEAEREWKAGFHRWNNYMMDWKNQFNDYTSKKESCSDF
T1 sequence (O42275 24-633): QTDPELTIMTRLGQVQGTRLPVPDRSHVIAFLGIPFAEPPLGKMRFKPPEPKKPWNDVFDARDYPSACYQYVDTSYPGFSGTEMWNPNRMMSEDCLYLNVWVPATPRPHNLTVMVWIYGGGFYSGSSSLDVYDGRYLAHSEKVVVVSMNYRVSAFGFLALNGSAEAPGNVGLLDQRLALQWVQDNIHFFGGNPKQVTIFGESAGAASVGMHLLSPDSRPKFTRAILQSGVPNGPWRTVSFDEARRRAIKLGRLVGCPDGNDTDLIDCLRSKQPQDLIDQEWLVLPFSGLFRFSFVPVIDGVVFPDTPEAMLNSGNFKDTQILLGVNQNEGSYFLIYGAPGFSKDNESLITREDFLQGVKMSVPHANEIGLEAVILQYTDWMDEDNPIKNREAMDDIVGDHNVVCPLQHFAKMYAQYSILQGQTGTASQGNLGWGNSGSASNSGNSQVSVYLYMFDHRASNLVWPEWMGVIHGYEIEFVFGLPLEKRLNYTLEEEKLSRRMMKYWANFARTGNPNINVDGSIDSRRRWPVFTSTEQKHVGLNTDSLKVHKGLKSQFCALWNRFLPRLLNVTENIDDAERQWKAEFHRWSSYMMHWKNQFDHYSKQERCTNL

c1ccc(CN2CCN(CCCCCCNc3nc(-c4ccccc4)n(-c4ccccc4)n3)CC2)cc1 [Compound 13d, N-(6-(4-benzylpiperazin-1-yl)hexyl)-1,5-diphenyl-1H-1,2,4-triazol-3-amine]
IC50 [1]: 5220 ± 188 nM | IC50 [2]: 2210 ± 68 nM

c1ccc(CN2CCN(CCCCNc3nc(-c4ccccc4)n(-c4ccccc4)n3)CC2)cc1 [Compound 13b, N-(4-(4-benzylpiperazin-1-yl)butyl)-1,5-diphenyl-1H-1,2,4-triazol-3-amine]
IC50 [1]: 3790 ± 61 nM | IC50 [2]: 1630 ± 111 nM

c1ccc(CN2CCN(CCCNc3nc(-c4ccccc4)n(-c4ccccc4)n3)CC2)cc1 [Compound 13a, N-(3-(4-benzylpiperazin-1-yl)propyl)-1,5-diphenyl-1H-1,2,4-triazol-3-amine]
type of inhibition, AChE [3]: mixed-type inhibition | type of inhibition, BuChE [4]: mixed-type inhibition

Nc1nc(-c2ccccc2)n(-c2ccccc2)n1 [Compound 6a, 1,5-Diphenyl-1,2,4-triazol-3-amine]
cholinesterase inhibition (AChE), in words ([1]; at 30 μM): no significant cholinesterase inhibition | inhibition at 30 µM ([1]; read-out: AChE inhibition (class NA in IC50 column)): < 20% | cholinesterase inhibition (BuChE), in words ([2]; at 30 μM): no significant cholinesterase inhibition | inhibition at 30 µM ([2]; read-out: BuChE inhibition (class NA in IC50 column)): < 20%

c1ccc(CN2CCN(CCCCCNc3nc(-c4ccccc4)n(-c4ccccc4)n3)CC2)cc1 [Compound 13c, N-(5-(4-benzylpiperazin-1-yl)pentyl)-1,5-diphenyl-1H-1,2,4-triazol-3-amine]
IC50 [1]: 11000 ± 251 nM | IC50 [2]: 1650 ± 59 nM
